According to patent US7226936B2, “Pyridinic sulfonamide derivatives method of production and use thereof” (University De Liege, priority 2001, dated 2007):

Key:
[1] = test system: rat paw oedema; test: Carrageenin-induced rat paw oedema model; type: in vivo, Wistar rats; settings: for percentage of growth of the paw after injection of carrageneen: 1 h before carrageenin, paw weighed 3 h after, mean±standard deviation, n=6, control 96 ± 8.7
Description: The activity of the derivatives has also been evaluated by using a rat paw oedema pharmacological model.
In Carrageenin-induced rat paw oedema model, Wistar rats were used. The mean weight of the animals was 250 g. The animals were treated with an intraperitoneal injection of the drug at the appropriate concentration (solution at the concentration of 10 mg/mL in DMSO). Lambda carrageenin (0.1 mL; 1%) was injected one hour later in the plantar region of the right hand paw. Three hours thereafter, the rats were euthanasied by injection of nembutal (100 mg/kg) and the paws were cutted at the ankle. The swelling was calculated as a percentage increase in the weight of the control paw.
Results are expressed as percentage of growth of the paw after injection of carrageneen (mean±standard deviation, n=6).

[2] = biological target: T1, COX-2 (Homo sapiens, UniProt P35354); test: whole blood assay, COX-2 inhibition; type: cell-based
T1 construct: endogenous in cells; host or cells: whole blood (blood cells)
T1 sequence (P35354 18-604): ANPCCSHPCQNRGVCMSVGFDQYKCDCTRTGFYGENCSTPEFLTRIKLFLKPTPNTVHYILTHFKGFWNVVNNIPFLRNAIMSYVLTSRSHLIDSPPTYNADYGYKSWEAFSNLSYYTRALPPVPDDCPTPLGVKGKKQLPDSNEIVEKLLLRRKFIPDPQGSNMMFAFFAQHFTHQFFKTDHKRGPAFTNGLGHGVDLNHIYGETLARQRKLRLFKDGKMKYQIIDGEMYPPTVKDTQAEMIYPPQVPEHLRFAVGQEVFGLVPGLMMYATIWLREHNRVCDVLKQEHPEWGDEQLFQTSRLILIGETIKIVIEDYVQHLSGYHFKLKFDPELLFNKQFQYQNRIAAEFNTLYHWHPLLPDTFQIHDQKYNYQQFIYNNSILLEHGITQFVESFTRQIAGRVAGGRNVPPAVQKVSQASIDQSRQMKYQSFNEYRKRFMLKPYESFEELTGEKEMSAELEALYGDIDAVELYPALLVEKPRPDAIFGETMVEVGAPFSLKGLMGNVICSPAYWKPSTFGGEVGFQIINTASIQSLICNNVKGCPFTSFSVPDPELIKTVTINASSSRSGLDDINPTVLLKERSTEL

O=S(=O)(Nc1ccncc1Oc1ccccc1)C(F)(F)F [Compound 1, N-(3-phenoxy-4-pyridinyl)trifluoromethane-sulfonamide]
percentage of growth of the paw after injection of carrageneen ([1]; 5 mg/kg intraperitoneal): 101.0 ± 8.1 percentage | percentage of growth of the paw after injection of carrageneen ([1]; 10 mg/kg intraperitoneal): 74.7 ± 7.2 percentage | percentage of growth of the paw after injection of carrageneen ([1]; 30 mg/kg intraperitoneal): 54.1 ± 17.5 percentage | anti-inflammatory effect in vivo (in words) ([1]; conclusion from Table 2): presents an anti-inflammatory effect in vivo | activity as COX-2 inhibitor (in words) ([2]; conclusion from Table 1): active as COX-2 inhibitor | IC50 ([2]; estimated IC50, whole blood assay): 400 nM
